Measurements reported in US6790869B2, “Resveratrol analogs for prevention of disease” (Rutgers, The State University of New Jersey, priority 1999, dated 2004).
Like-named read-outs stand apart in the source and are kept apart here. Blank lines part the entries; values can stand above or below the molecule they belong to.

Columns and labels:
[1] = system: W138 cells; assay: Morphological changes in cells; assay type: cell-based, human; settings: normal W138 cells
Description: (§1) In addition to inhibition of cell growth, treatment of W138 and W138VA cells with analogs led to morphological changes in the cells. Treatment of W138 cells with resveratrol and its analogs R-1 and R-3 led to elongation of normal W138 cells. Methoxy analogs such as MR-0 and MR-3 caused the flattening of W138 cells.

[2] = system: W138 human diploid fibroblasts; assay: Cell proliferation assay, viable cells counted by trypan blue dye exclusion; assay type: cell-based; set-up: key to Growth Rate in Cells Following Exposure to Resveratrol Analogs, W138 Cells: +: >60% growth inhibition; —: no effect or only slight inhibition observed; settings: for Growth Rate in Cells Following Exposure to Resveratrol Analogs, W138 Cells: at the concentration in parentheses after the analog, 5 days in culture
Experimental: (§2) Initial tests examined the potential cancer preventive activity of the analogs. Resveratrol and its analogs were evaluated in W138 and SV40 transformed W138VA cells and in preneoplastic 184-B5/HER and neoplastic SK-BR-3 human mammary epithelial cells. Cell proliferation, apoptosis, and gene expression studies were conducted using standard methodologies.
(§3) W138 human diploid fibroblasts and cancerous SV40-transformed W138 cells (W138VA) were used in a cell proliferation assay. Growth rate and viability of these cells was determined following addition of each analog. Doses tested ranged from 50 ng to 300 μg per ml or 1 μM to 100 μM concentrations in culture media. Cell cultures were grown for 5 days in the presence of the various doses of analogs. Growth rate was measured by counting viable cells using the trypan blue dye exclusion method. Resveratrol inhibited cell growth at low concentrations, less than 10 μM. […] MR-1 was not active as an inhibitor of cell growth even at doses as high as 100 μM.

[3] = system: SV40-transformed W138 cells (W138VA); assay: as above; assay type: cell-based, human; set-up: key to Growth Rate in Cells Following Exposure to Resveratrol Analogs, W138VA Cells: +: >60% growth inhibition; —: no effect or only slight inhibition observed; settings: for Growth Rate in Cells Following Exposure to Resveratrol Analogs, W138VA Cells: at the concentration in parentheses after the analog, 5 days in culture
Experimental: as §2, §3

[4] = system: W138 and W138VA cells; assay: Cell proliferation assay, result not separated by cell line; assay type: cell-based, human; settings: for effective concentration for growth inhibition: value in parentheses in Table 1, W138 / W138VA cells, 5 days
Experimental: as §2, §3

[5] = system: W138 cells; assay: Apoptosis assay, fluorescent labeling of fragmented DNA; assay type: cell-based, human
Description: (§4) The effect of the analogs on apoptosis was also examined. Apoptosis is characterized by nuclear DNA fragmentation that is mediated through a variety of signal transduction pathways. An assay was used that relies on fluorescent labeling of fragmented DNA.

[6] = system: W138VA cells; assay: as above; assay type: cell-based, human
Description: as §4

[7] = system: neutral β-galactosidase activity in W138 cells; assay: Neutral β-galactosidase staining (senescence marker); assay type: cell-based, human; settings: accompanying flattening
Description: as §1

[8] = system: 184-B5/HER cells; assay: Growth inhibition in 184-B5/HER cells; assay type: cell-based; settings: Homo sapiens
Experimental: as §2
(§5) Resveratrol and its analogs were also tested in 184-B5/HER cells.

[9] = system: 184-B5/HER cells; assay: Cell cycle analysis; assay type: cell-based, human
Experimental: as §5

[10] = system: 184-B5/HER cells; assay: Apoptosis assay, fluorescent labeling of fragmented DNA; assay type: cell-based, human
Description: as §4

[11] = system: 184-B5/HER cells; assay: Anchorage-dependent colony formation assay; assay type: cell-based; settings: Homo sapiens
Description: Cell colony formation was also examined in 184-B5/HER cells. […] Resveratrol, MR-0 and MR-2 produced approximately 25-40% inhibition in the anchorage-dependent colony formation assay. MR-3, however, produced almost a 80% inhibition of colony formation.

[12] = system: human glyceraldehyde-3-phosphate dehydrogenase (HG3PDH) expression; assay: Targeted gene assay by RT-PCR; assay type: cell-based; settings: W138 and W138VA cells, serum-stimulated from G0
Experimental: (§6) Targeted gene assay was then performed using RT-PCR. Both normal (W138) and cancerous (W138VA) cells at resting phase (G0) were treated with 10-15% fetal bovine serum to initiate growth stimulation. Cells were then harvested at various time points during cell cycle progression. Total RNA was prepared from these cells according to standard RT-PCR methods. Paired gene specific primers were prepared and used including human glyceraldehyde-3-phosphate dehydrogenase HG3PDH), c-fos, c-myc, ornithine decarboxylase (ODC), proliferating cell nuclear antigen (PCNA), thymidine kinase (TK), cyclooxygenase 2 (COX2), BRCA1, BRCA2, p53, APC, MCC, pRb, cyclooxygenase 1 (COX1), bc12, and Bax. […] Expression of c-fos and c-myc, an early G1 event in normal W138 cells, were both deregulated in transformed W138VA cells. […] Similarly, treatment of cells, both normal and transformed, with either resveratrol or MR-3 had no effect on expression of ODC, PCNA, or TK genes (all cell cycle dependent genes).

[13] = system: c-fos expression; assay: Targeted gene assay by RT-PCR; assay type: cell-based, human; settings: W138 and W138VA cells, serum-stimulated from G0
Experimental: as §6

[14] = system: c-myc expression; assay: Targeted gene assay by RT-PCR; assay type: cell-based, human; settings: W138 and W138VA cells, serum-stimulated from G0
Experimental: as §6

[15] = system: cyclooxygenase 2 (COX2) expression; assay: Targeted gene assay by RT-PCR; assay type: cell-based, human
Experimental: as §6

[16] = system: ornithine decarboxylase (ODC) gene expression; assay: Targeted gene assay by RT-PCR; assay type: cell-based, human; settings: both normal and transformed cells
Experimental: as §6

[17] = system: proliferating cell nuclear antigen (PCNA) gene expression; assay: Targeted gene assay by RT-PCR; assay type: cell-based, human; settings: both normal and transformed cells
Experimental: as §6

[18] = system: thymidine kinase (TK) gene expression; assay: Targeted gene assay by RT-PCR; assay type: cell-based, human; settings: both normal and transformed cells
Experimental: as §6

[19] = system: BRCA1 gene expression; assay: Targeted gene assay by RT-PCR; assay type: cell-based, human; settings: for effect on expression of BRCA1 gene: human cells, all time points examined
Experimental: as §6
(§7) Both BRCA1 and BRCA2 are breast cancer genes that together appear to be responsible for more than 60% of total hereditary breast cancers. Therefore, resveratrol and its analogs appear to modulate the breast cancer genes.

[20] = system: BRCA2 gene expression; assay: Targeted gene assay by RT-PCR; assay type: cell-based, human; settings: for effect on expression of BRCA2 gene: human cells, all time points examined
Experimental: as §6, §7

[21] = system: oncogene expression preneoplastic breast epithelial cells; assay: In vivo tumor inhibition in an orthotransplant model; settings: mice, AIN-76A diet with 400 ppm
Experimental: The in vivo tumor inhibitory effects of MR-3 were tested in an orthotransplant model. Mice were transplanted with an oncogene expression preneoplastic breast epithelial cells. Mice were then divided into groups with the control group fed AIN-76A diet alone. Another group of mice was fed AIN-76A diet supplemented with 400 ppm MR-3.

[22] = read-out: concentration that inhibited growth by 50% (IC50), 184-B5/HER cells
[23] = 184-B5/HER cells, continuous treatment with 4 μM, read-out: inhibition of colony formation

Structure (SMILES): Oc1cc(O)cc(C=Cc2ccccc2)c1 [Analog R-1, 3,5-dihydroxystilbene]
morphological change of cells [1]: elongation

Structure (SMILES): Oc1ccc(C=Cc2cc(O)c(O)c(O)c2)cc1 [Analog R-3, 3,4,4′,5-tetrahydroxystilbene]
Growth Rate in Cells Following Exposure to Resveratrol Analogs, W138 Cells [2]: + (>60% growth inhibition)
Growth Rate in Cells Following Exposure to Resveratrol Analogs, W138VA Cells [3]: + (>60% growth inhibition)
fold less effective than resveratrol in inhibiting cell growth ([4]; relative to resveratrol): 10 fold
effective concentration for growth inhibition [4]: R3 (10 μM)
morphological change of cells [1]: elongation
induction of apoptosis [5]: not in W138 cells
induction of apoptosis [6]: induced apoptosis

Structure (SMILES): COc1ccc(C=Cc2cc(OC)cc(OC)c2)cc1 [MR-0, 3,4′,5-trimethoxystilbene]
ability to inhibit cell growth compared with resveratrol ([2]; W138 cells): less effective than resveratrol
Growth Rate in Cells Following Exposure to Resveratrol Analogs, W138 Cells [2]: + (>60% growth inhibition)
ability to inhibit cell growth compared with resveratrol ([3]; W138VA cells): did not significantly affect
Growth Rate in Cells Following Exposure to Resveratrol Analogs, W138VA Cells [3]: + (>60% growth inhibition)
effective concentration for growth inhibition [4]: MR0 (100 μM)
morphological change of cells [1]: flattening
neutral β-galactosidase activity (staining) [7]: increase in neutral β-galactosidase activity
IC50 [8, 22]: 10.5 µM
cell cycle effect relative to solvent-treated control cultures [9]: progressive arrest of cell in the G2/M phase
induction of apoptosis versus solvent-treated control cells [10]: induced apoptosis to a significantly greater extent than solvent-treated control cells
inhibition at 4 µM [11, 23]: 25 to 40%

Structure (SMILES): COc1cc(C=Cc2ccccc2)cc(OC)c1 [MR-1, 3,5-dimethoxystilbene]
Growth Rate in Cells Following Exposure to Resveratrol Analogs, W138 Cells [2]: —^4
Growth Rate in Cells Following Exposure to Resveratrol Analogs, W138VA Cells [3]: —
activity as an inhibitor of cell growth ([4]; doses as high as 100 μM): not active
effective concentration for growth inhibition [4]: MR1 (100 μM)

Structure (SMILES): COc1cc(C=Cc2ccc(OC)c(OC)c2)cc(OC)c1 [MR-2, 3,3′,4,5′-tetramethoxystilbene]
IC50 [8, 22]: 120 µM
cell cycle effect relative to solvent-treated control cultures [9]: progressive arrest of cell in the G2/M phase
induction of apoptosis versus solvent-treated control cells [10]: induced apoptosis to a significantly greater extent than solvent-treated control cells
inhibition at 4 µM [11, 23]: 25 to 40%

Structure (SMILES): COc1ccc(C=Cc2cc(OC)c(OC)c(OC)c2)cc1 [MR-3, 3,4,4′,5-tetramethoxystilbene]
effect on growth ([2]; W138 cells, 1 μM): no effect
Growth Rate in Cells Following Exposure to Resveratrol Analogs, W138 Cells [2]: —
effect on proliferation ([3]; W138VA cells, 1 μM): completely blocked proliferation
Growth Rate in Cells Following Exposure to Resveratrol Analogs, W138VA Cells [3]: + (>60% growth inhibition)
rank in inhibiting cell growth among the methylated analogs [4]: most effective
effective concentration for growth inhibition [4]: MR3 (1 μM)
morphological change of cells [1]: flattening
neutral β-galactosidase activity (staining) [7]: increase in neutral β-galactosidase activity
IC50 ([8]; 184B5, read-out: concentration that inhibited growth by 50% (IC50)): 1 µM
cell cycle effect relative to solvent-treated control cultures [9]: progressive arrest of cell in the G2/M phase
rank in cell cycle arrest [9]: most effective compound
induction of apoptosis versus solvent-treated control cells [10]: no effect
inhibition at 4 µM ([11]; 184B5, read-out: inhibition of colony formation): ~80%
effect on expression of HG3PDH [12]: did not affect the expression
effect on expression of c-fos [13]: did not significantly affect the expression
effect on expression of c-myc [14]: did not significantly affect the expression
effect on expression of COX2 ([15]; W138VA cells): stimulated the expression
effect on expression of COX2 ([15]; W138 cells): not in W138 cells
effect on expression of ODC gene [16]: no effect
effect on expression of PCNA gene [17]: no effect
effect on expression of TK gene [18]: no effect
potency in inhibiting expression of BRCA1 compared with resveratrol ([19]; at equal doses): more potent than resveratrol
effect on expression of BRCA1 gene [19]: completely abolished expression
potency in inhibiting expression of BRCA2 compared with resveratrol ([20]; at equal doses): more potent than resveratrol
effect on expression of BRCA2 gene [20]: completely abolished expression
weight gains compared with control group ([21]; 12 weeks): comparable
tumor incidence ([21]; 12 weeks continuous feeding, control group 100%): 20%

Structure (SMILES): COc1cc(C=Cc2cc(OC)cc(OC)c2)cc(OC)c1 [MR-4, 3,3′,5′5′-tetramethoxystilbene]
inhibition of growth ([2]; W138 cells, 100 μM): inhibited growth
Growth Rate in Cells Following Exposure to Resveratrol Analogs, W138 Cells [2]: + (>60% growth inhibition)
inhibition of growth ([3]; W138VA cells, 100 μM): not W138VA cells
Growth Rate in Cells Following Exposure to Resveratrol Analogs, W138VA Cells [3]: —
effective concentration for growth inhibition [4]: MR4 (100 μM)

Structure (SMILES): COc1cc(C=Cc2cc(OC)c(OC)c(OC)c2)cc(OC)c1 [MR-5, 3,3′,4,5,5′-pentamethoxystilbene]
Growth Rate in Cells Following Exposure to Resveratrol Analogs, W138 Cells [2]: + (>60% growth inhibition)
Growth Rate in Cells Following Exposure to Resveratrol Analogs, W138VA Cells [3]: + (>60% growth inhibition)
effective concentration for growth inhibition [4]: MR5 (100 μM)

effect on expression of HG3PDH [12]: did not affect the expression
Structure (SMILES): Oc1ccc(C=Cc2cc(O)cc(O)c2)cc1 [Resveratrol, 3,4′,5-trihydroxystilbene]
Growth Rate in Cells Following Exposure to Resveratrol Analogs, W138 Cells [2]: +^2 (>60% growth inhibition)
Growth Rate in Cells Following Exposure to Resveratrol Analogs, W138VA Cells [3]: + (>60% growth inhibition)
concentration at which cell growth was inhibited ([4]; 5 days in culture): less than 10 μM
effective concentration for growth inhibition [4]: R0 (10 μM)^1
morphological change of cells [1]: elongation
IC50 [8, 22]: 10.5 µM
induction of apoptosis versus solvent-treated control cells [10]: induced apoptosis to a significantly greater extent than solvent-treated control cells
inhibition at 4 µM [11, 23]: 25 to 40%
effect on expression of c-fos [13]: did not significantly affect the expression
effect on expression of c-myc [14]: did not significantly affect the expression
effect on expression of ODC gene [16]: no effect
effect on expression of PCNA gene [17]: no effect
effect on expression of TK gene [18]: no effect
effect on expression of BRCA1 gene [19]: completely abolished expression
effect on expression of BRCA2 gene [20]: completely abolished expression
